In patent US20050070480A1, “Peptide arginals and methods for treating disseminated intravascular coagulation” (priority 2001, published 2005):
Like-named read-outs stand apart in the source and are kept apart here.

Experiments:
citrated human plasma [1] = assay: Prothrombin time (PT) plasma clotting assay; type: biochemical
Method: (§1) The inhibitory effect on plasma coagulation was evaluated in the thrombin time (TT), activated partial thromboplastin time (APTT) and prothrombin time (PT) assays by using citrated human plasma as substrate [Bagdy, D. et. al.: Thromb. Haemostas. 67, 325 (1992)]. The TT assay measures the inhibition of a single step, the coagulation of fibrinogen on the action of exogenous thrombin (final concentration 2.5 NIH U/ml). Clotting of plasma in the APTT and PT assays was induced by recalcification. Endogenous thrombin generated could theoretically be present at a final concentration as high as 50 NIH U/ml (APTT, PT). These assays detect the sum of inhibitory actions on fibrin formation and thrombin generation, which includes several proteolytic reactions mediated by either thrombin or other enzymes, e.g. fXa. Anticlotting activity is expressed in CT2, which is the concentration (nM) required to double the clotting time.

plasmin (PL) = plasmin (PL) (Homo sapiens, UniProt P00747); assay: Fibrin plate assay, plasmin; type: biochemical; settings: reduction of lysed area to 50% of control, read-out: LA50 PL
Chain of plasmin (PL) (P00747 581-810 limits assumed, species assumed): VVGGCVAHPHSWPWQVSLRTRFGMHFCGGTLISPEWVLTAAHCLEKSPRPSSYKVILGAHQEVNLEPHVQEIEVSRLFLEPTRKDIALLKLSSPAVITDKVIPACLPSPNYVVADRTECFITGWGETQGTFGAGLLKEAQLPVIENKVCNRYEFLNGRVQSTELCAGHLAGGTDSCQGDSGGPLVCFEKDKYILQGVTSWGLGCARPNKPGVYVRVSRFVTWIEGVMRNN
Chain of plasmin (PL) (P00747 97-580 limits assumed, species assumed): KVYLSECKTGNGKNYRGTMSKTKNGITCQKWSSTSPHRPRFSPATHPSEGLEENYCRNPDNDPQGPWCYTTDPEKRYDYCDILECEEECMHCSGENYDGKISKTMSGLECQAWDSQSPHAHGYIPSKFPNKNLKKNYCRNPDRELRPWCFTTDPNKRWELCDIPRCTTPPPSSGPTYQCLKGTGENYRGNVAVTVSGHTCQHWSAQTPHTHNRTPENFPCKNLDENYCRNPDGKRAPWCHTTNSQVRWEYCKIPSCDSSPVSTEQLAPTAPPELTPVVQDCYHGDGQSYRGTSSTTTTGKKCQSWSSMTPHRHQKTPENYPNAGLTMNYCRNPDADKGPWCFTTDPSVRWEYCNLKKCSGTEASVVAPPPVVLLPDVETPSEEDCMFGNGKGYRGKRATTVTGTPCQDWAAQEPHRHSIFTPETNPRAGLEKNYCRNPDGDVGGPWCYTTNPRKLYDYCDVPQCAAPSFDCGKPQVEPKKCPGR
From the text: (§2) Inhibitory effects of the compounds of the invention on plasmin (PL) and plasmin generation by plasminogen (Plogen) activators, such as tissue plasminogen activator (tPA), and urokinase (UK) were examined by the fibrin plate assay. (See e.g., Bagdy, D., Barabás, E., Bajusz, S., and Széll, E., Thromb. Haemostas., 67:325-330 (1992); Barabás, E. Szell, E. and Bajusz, S, Blood Coagulation and Fibrinolysis, 4: 243 (1993)) The results are shown in Table 1, Column C. With a few exceptions the analogues are somewhat more inhibitory than Efegatran against the three fibrinolytic enzymes.

endotoxin-treated rats = assay: Rat model for disseminated intravascular coagulation (fibrin deposition, platelet count, FDP)
Method: The effects of compound 1 of the invention and two control anticoagulants, Efegatran (C) and heparin (H) on such phenomena were examined in endotoxin-treated rats [Ford, A. J. and Longridge, D. J.: Br. J. Pharmacol. 110, Suppl.
Male rats were treated with an i.v. bolus injection of 10 mg/kg endotoxin. It was followed by i.v. infusion of saline or the test compounds for four hours. Of compounds 1 and 3, 0.25 mg/kg was given as an initial bolus injection followed by an 0.25 mg/kg/h i.v. infusion for four hours. Heparin (H) was applied similarly, 50 IU/kg as an initial bolus injection followed by an 50 IU/kg/h i.v. infusion for four hours. Control group of animals was treated with 0.9% saline.
The deposition of ^125I-fibrin was investigated in selected organs (liver and kidney. ^125I-fibrinogen was injected 30 min. prior to endotoxin injection. The radioactivities in the tissue samples were measured in a gamma counter (Wallac Wizard 1470). Microthrombi formation in the organs was assessed using the ratio of organ ^125I activity to injected total ^125I activity, defined as the microthrombi index. Changes in this parameter are expressed in percent compared to saline group.
Number of platelet count was determined in an automatic appliance (Sysmex F-800) and related to control values.
Determination of FDP (fibrin degradation products) by Aggristin (Ristocetin) precipitation assay. […]

[2] = tested on: citrated human plasma (exogenous thrombin); assay: Thrombin time (TT) plasma clotting assay; type: biochemical; settings: thrombin 2.5 NIH U/ml
Method: as §1

urokinase (UK) = urokinase (UK) (Homo sapiens, UniProt P00749); assay: Fibrin plate assay, urokinase; type: biochemical; settings: reduction of lysed area to 50% of control, urokinase, read-out: LA50 UK
From the text: as §2

[3] = molecular target: tissue plasminogen activator (tPA) (Homo sapiens, UniProt P00750); assay: Fibrin plate assay, tissue plasminogen activator; type: biochemical; settings: reduction of lysed area to 50% of control, read-out: LA50 tPA
Chain of tissue plasminogen activator (tPA) (P00750 36-562, species assumed): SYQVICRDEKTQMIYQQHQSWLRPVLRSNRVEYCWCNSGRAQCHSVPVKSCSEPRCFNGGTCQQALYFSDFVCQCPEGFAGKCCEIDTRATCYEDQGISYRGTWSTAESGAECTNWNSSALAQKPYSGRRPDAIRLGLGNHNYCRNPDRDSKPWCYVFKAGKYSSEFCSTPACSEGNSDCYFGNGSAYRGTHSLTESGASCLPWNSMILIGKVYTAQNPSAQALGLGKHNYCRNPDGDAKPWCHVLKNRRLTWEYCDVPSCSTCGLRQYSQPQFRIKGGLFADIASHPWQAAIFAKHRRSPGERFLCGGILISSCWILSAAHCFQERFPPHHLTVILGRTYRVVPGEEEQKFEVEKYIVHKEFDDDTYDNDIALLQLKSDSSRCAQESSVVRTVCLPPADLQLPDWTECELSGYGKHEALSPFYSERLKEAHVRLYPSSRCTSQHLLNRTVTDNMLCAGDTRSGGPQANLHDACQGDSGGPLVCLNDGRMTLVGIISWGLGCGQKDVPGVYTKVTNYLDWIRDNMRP
From the text: as §2

[4] = tested on: endotoxin-treated rabbits; type: in vivo, rabbit; settings: for Lethality %, 2 hrs / Lethality no. died/treated animals, 2 hrs / Lethality %, 4 hrs / Lethality no. died/treated animals, 4 hrs: endotoxin-treated rabbits
citrated human plasma [5] = assay: Activated partial thromboplastin time (APTT) plasma clotting assay; type: biochemical
Method: as §1

LPS-treated rats = assay: Survival in a rat model for disseminated intravascular coagulation; type: in vivo; settings: for Survival rate %: rats, 30 mg/kg LPS i.v.
clot-bound thrombin = clot-bound thrombin (Homo sapiens, UniProt P00734); assay: Enzyme inhibition in platelet-rich plasma clots, chromogenic substrate Tos-Gly-Pro-Arg-pNA; type: biochemical; settings: for IC50: clot-bound thrombin, platelet-rich plasma clot
Method: (§3) Tos-Gly-Pro-Arg-pNA (S1) for thrombin and Moc-D-Chg-Gly-Arg-pNA (S2) for factor Xa, as published (Bajusz, S. et al.: PCT Pub. No. WO97/46576) briefly. The assays were carried out at room temperature in glass tubes and 96-well microtiter plates.
(§4) Solutions, (i) Buffer A: 0.1 M sodium phosphate/0.05 M NaCl (pH 8.5). (ii) Inhibitors: 0.1, 1.0 and 10 mg/ml solutions in buffer A containing 0.02% human albumin. (iii) Substrates: 1 mM of S1 and 2 mM of S2 in distilled water.
(§5) (b) Preparation of plasma clots. Platelet rich plasma samples (200 μl) placed in glass tubes were incubated at room temperature with 80 μl 40 mM CaCl2 for 60 min. The clots were washed with 2 ml aliquots of saline (0.9% NaCl) with gentle agitation to remove unbound enzymes In case of successful washing the optical density of the reaction mixture of wash and S1 is less than 5% of the control. The plasma clot thus obtained was kept under saline in the tube until use.
(§6) (c) Assessment of the enzyme inhibition in the clots. After removal of saline, the plasma clot was incubated at 37° C. with 400 μl inhibitor (or buffer A as negative control) for 5 min. and with 100 μl substrate S1 or S3 for 30 min., then the reaction was stopped with 100 μl 50% acetic acid. 150 μl portions of the reaction mixtures were placed in the wells of a microtiter plate and read at 405 nm (ELISA READER 800, Bio-Tek Instruments Inc. Winooski, Vt., USA). IC50 values were generated from the extinction data graphically.

clot-bound factor Xa = clot-bound factor Xa (Homo sapiens, UniProt P00742); assay: Enzyme inhibition in platelet-rich plasma clots, chromogenic substrate Moc-D-Chg-Gly-Arg-pNA; type: biochemical
Chain of clot-bound factor Xa (P00742 235-488 limits assumed): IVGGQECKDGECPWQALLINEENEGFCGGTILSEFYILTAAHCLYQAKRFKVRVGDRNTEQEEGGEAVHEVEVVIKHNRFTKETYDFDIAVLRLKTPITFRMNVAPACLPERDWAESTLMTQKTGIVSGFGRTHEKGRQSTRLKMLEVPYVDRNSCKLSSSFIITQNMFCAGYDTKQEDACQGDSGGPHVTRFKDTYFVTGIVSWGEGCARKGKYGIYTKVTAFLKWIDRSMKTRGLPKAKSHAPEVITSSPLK
Chain of clot-bound factor Xa (P00742 41-179 limits assumed): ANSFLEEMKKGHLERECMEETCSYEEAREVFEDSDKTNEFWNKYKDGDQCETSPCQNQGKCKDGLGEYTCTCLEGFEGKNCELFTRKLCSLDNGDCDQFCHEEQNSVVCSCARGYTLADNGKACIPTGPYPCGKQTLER
Method: as §3, §4, §5, §6

[6] = 0.75 mg/kg bolus + infusion, 0 hours
[7] = 0.75 mg/kg bolus + infusion, 4 hours
[8] = 0.75 mg/kg bolus + infusion, 5 hours
[9] = 0.75 mg/kg bolus + infusion, 6 hours
[10] = 0.75 mg/kg bolus + infusion, 7 hours
[11] = 0.75 mg/kg bolus + infusion, 8 hours
[12] = 1.0 mg/kg bolus + infusion, 0 hours
[13] = 1.0 mg/kg bolus + infusion, 4 hours
[14] = 1.0 mg/kg bolus + infusion, 5 hours
[15] = 1.0 mg/kg bolus + infusion, 6 hours
[16] = 1.0 mg/kg bolus + infusion, 7 hours
[17] = 1.0 mg/kg bolus + infusion, 8 hours
[18] = 1.5 mg/kg bolus + infusion, 0 hours
[19] = 1.5 mg/kg bolus + infusion, 4 hours
[20] = 1.5 mg/kg bolus + infusion, 5 hours
[21] = 1.5 mg/kg bolus + infusion, 6 hours
[22] = 1.5 mg/kg bolus + infusion, 7 hours
[23] = 1.5 mg/kg bolus + infusion, 8 hours

With `CCOC(=O)N[C@H](CC1CCCCCC1)C(=O)N1CCC[C@H]1C(=O)N[C@H](C=O)CCCNC(=N)N` [Compound 1, ethoxycarbonyl-D-cycloheptylalanyl-L-prolyl-L-arginine aldehyde] the “CT2 PT (concentration required for doubling the clotting time)” value (citrated human plasma [1]) was 1839 nM, the IC50 (plasmin (PL)) was 18 µM and the “DIC-inhibiting potential (in words)” value (endotoxin-treated rats) was “more pronounced than that of either heparin or Efegatran”. For the same molecule, the “CT2 TT (concentration required for doubling the clotting time)” value [2] was 147 nM, the IC50 (urokinase (UK)) was 14 µM and the IC50 [3] was 10 µM. For the same molecule, the “Effect on lethality of endotoxin-treated rabbits (in words)” value ([4]; compared with endotoxin alone) was “significantly reduce the lethality”, the “Lethality %, 2 hrs” value ([4]; 0.25 mg/kg/h infusion) was 0% and the “Lethality no. died/treated animals, 2 hrs” value ([4]; 0.25 mg/kg/h infusion) was 0/19. For the same molecule, the “Lethality %, 4 hrs” value ([4]; 0.25 mg/kg/h infusion) was 16%, the “Lethality no. died/treated animals, 4 hrs” value ([4]; 0.25 mg/kg/h infusion) was 3/19 and the “Lethality %, 2 hrs” value ([4]; 0.5 mg/kg/h infusion) was 0%. The “Lethality no. died/treated animals, 2 hrs” value ([4]; 0.5 mg/kg/h infusion) was 0/12, the “Lethality %, 4 hrs” value ([4]; 0.5 mg/kg/h infusion) was 17% and the “Lethality no. died/treated animals, 4 hrs” value ([4]; 0.5 mg/kg/h infusion) was 2/12. The “CT2 APTT (concentration required for doubling the clotting time)” value (citrated human plasma [5]) was 331 nM, the “Effectiveness on survival compared with reference C (in words)” value (LPS-treated rats; LPS-treated rats) was “more effective than reference C” and the Survival rate % (LPS-treated rats; [6]) was 100%. For the same molecule, the Survival rate % (LPS-treated rats; [7]) was 100%, the Survival rate % (LPS-treated rats; [8]) was 100% and the Survival rate % (LPS-treated rats; [9]) was 100%. For the same molecule, the Survival rate % (LPS-treated rats; [10]) was 90%, the Survival rate % (LPS-treated rats; [11]) was 70% and the Survival rate % (LPS-treated rats; [12]) was 100%. The Survival rate % (LPS-treated rats; [13]) was 100%, the Survival rate % (LPS-treated rats; [14]) was 100% and the Survival rate % (LPS-treated rats; [15]) was 100%. The Survival rate % (LPS-treated rats; [16]) was 90%, the Survival rate % (LPS-treated rats; [17]) was 90% and the Survival rate % (LPS-treated rats; [18]) was 100%. For the same molecule, the Survival rate % (LPS-treated rats; [19]) was 100%, the Survival rate % (LPS-treated rats; [20]) was 100% and the Survival rate % (LPS-treated rats; [21]) was 100%. For the same molecule, the Survival rate % (LPS-treated rats; [22]) was 100%, the Survival rate % (LPS-treated rats; [23]) was 100% and the “Inhibition of clot-bound thrombin compared with Efegatran (in words)” value (clot-bound thrombin) was “surpass Efegatran”. It also gave an IC50 (clot-bound thrombin) of 0.103 µM and an IC50 (clot-bound factor Xa) of 0.118 µM.
In the case of `CN[C@H](Cc1ccccc1)C(=O)N1CCC[C@H]1C(=O)N[C@H](C=O)CCCN=C(N)N` [C, D-MePhe-Pro-Arg-H, reference compound], the “CT2 PT (concentration required for doubling the clotting time)” value (citrated human plasma [1]) is reported as 2915 nM, the IC50 (plasmin (PL)) is reported as 54 µM and the “CT2 TT (concentration required for doubling the clotting time)” value [2] is reported as 87 nM. For the same molecule, the IC50 (urokinase (UK)) was 82 µM, the IC50 [3] was 132 µM and the “Lethality %, 2 hrs” value ([4]; 0.25 mg/kg/h infusion) was 7%. The “Lethality no. died/treated animals, 2 hrs” value ([4]; 0.25 mg/kg/h infusion) was 1/14, the “Lethality %, 4 hrs” value ([4]; 0.25 mg/kg/h infusion) was 36% and the “Lethality no. died/treated animals, 4 hrs” value ([4]; 0.25 mg/kg/h infusion) was 5/14. For the same molecule, the “Lethality %, 2 hrs” value ([4]; 0.5 mg/kg/h infusion) was 7%, the “Lethality no. died/treated animals, 2 hrs” value ([4]; 0.5 mg/kg/h infusion) was 1/15 and the “Lethality %, 4 hrs” value ([4]; 0.5 mg/kg/h infusion) was 40%. The “Lethality no. died/treated animals, 4 hrs” value ([4]; 0.5 mg/kg/h infusion) was 6/15, the “CT2 APTT (concentration required for doubling the clotting time)” value (citrated human plasma [5]) was 622 nM and the Survival rate % (LPS-treated rats; [6]) was 100%. The Survival rate % (LPS-treated rats; [7]) was 93%, the Survival rate % (LPS-treated rats; [8]) was 73% and the Survival rate % (LPS-treated rats; [9]) was 67%. For the same molecule, the Survival rate % (LPS-treated rats; [10]) was 33%, the Survival rate % (LPS-treated rats; [11]) was 27% and the Survival rate % (LPS-treated rats; [12]) was 100%. The Survival rate % (LPS-treated rats; [13]) was 83%, the Survival rate % (LPS-treated rats; [14]) was 83% and the Survival rate % (LPS-treated rats; [15]) was 66%. The Survival rate % (LPS-treated rats; [16]) was 58%, the Survival rate % (LPS-treated rats; [17]) was 50% and the Survival rate % (LPS-treated rats; [18]) was 100%. The Survival rate % (LPS-treated rats; [19]) was 100%, the Survival rate % (LPS-treated rats; [20]) was 100% and the Survival rate % (LPS-treated rats; [21]) was 100%. The Survival rate % (LPS-treated rats; [22]) was 92%, the Survival rate % (LPS-treated rats; [23]) was 92% and the IC50 (clot-bound thrombin) was 0.375 µM. It also gave an IC50 (clot-bound factor Xa) of 1 µM.
